What was measured:
hCPT2 = molecular target: T1, hCPT2 (Homo sapiens, UniProt P23786); test: CPT2 inhibition, spectrophotometric DTNB (Ellman's reagent) assay; type: biochemical; conditions: human CPT2 expressed in P. pastoris, cell extract; carnitine 500 μM, palmitoyl-CoA 80 μM, DTNB 300 μM
T1 construct: made in house; host or cells: Pichia pastoris strain X-33
T1 sequence (P23786 26-658): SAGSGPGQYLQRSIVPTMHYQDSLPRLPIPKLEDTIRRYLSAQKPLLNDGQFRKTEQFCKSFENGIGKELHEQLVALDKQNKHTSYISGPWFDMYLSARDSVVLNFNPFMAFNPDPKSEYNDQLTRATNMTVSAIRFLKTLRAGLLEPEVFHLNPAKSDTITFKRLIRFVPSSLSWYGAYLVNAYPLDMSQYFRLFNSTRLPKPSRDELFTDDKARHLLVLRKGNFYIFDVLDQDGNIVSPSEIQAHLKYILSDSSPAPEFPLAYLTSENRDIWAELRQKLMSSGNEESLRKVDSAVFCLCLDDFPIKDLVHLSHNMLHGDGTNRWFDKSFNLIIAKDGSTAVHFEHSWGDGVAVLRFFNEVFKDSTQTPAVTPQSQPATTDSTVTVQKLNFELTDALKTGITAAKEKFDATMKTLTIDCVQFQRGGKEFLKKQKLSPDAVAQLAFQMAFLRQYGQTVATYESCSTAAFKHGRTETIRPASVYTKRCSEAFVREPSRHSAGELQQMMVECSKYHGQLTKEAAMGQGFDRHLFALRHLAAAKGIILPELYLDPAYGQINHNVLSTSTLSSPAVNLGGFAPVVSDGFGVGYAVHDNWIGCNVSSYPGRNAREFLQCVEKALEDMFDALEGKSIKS
Experimental: (§1) The following tests were carried out in order to determine the activity of the compounds of the present invention. Background information on the performed assays can be found in: Jackson et al., 1999, Biochem. J. 341, 483-489 and Jackson et al., 2000, J. Biol. Chem. 275, 19560-19566.
(§2) Human and rat CPT2- and liver CPT1 cDNAs, and human muscle CPT1 cDNA were subcloned in pGAPZB or pGAPZA, respectively. These plasmids were used to transform P. pastoris strain X-33 via electroporation after the preparation of electrocompetent cells. High copy number clones were selected where necessary using 0.5 or 1 mg/ml Zeocin. Cultures for activity measurements were induced for 16 h in YPD medium (1% yeast extract, 2% peptone, 2% glucose). Crude cell extracts were prepared by disrupting the cells with glass beads or French Press, depending on fermenter sizes. After centrifugation, the cell-free extracts were resuspended in cell breaking buffer (50 mM Tris, pH7.4, 100 mM KCl, 1 mM EDTA) in the presence of a protease inhibitor cocktail, before aliquoting and freezing at −20° C.
(§3) CPT activity was measured using a spectrophotometric assay using 5,5′-dithio-bis-(2-nitrobenzoic acid) (DTNB) also called Ellman's reagent. The HS-CoA released on the formation of acylcarnitine from carnitine (500 μM) and palmitoyl-CoA (80 μM) reduced DTNB (300 μM) forming 5-mercapto-2-nitrobenzoic acid which absorbed at 410 nm with a molar extinction coefficient of 13600 M^−1cm^−1. The assay buffer contained 120 mM KCl, 25 mM Tris, pH 7.4, 1 mM EDTA. This assay was used for the identification of CPT inhibitors, particularly/preferentially CPT2-selective inhibitors, versus the liver and muscle CPT1 isoforms.

hL-CPT1 = molecular target: T2, hL-CPT1 (Homo sapiens, UniProt P50416); test: liver CPT1 inhibition, spectrophotometric DTNB (Ellman's reagent) assay; type: biochemical; conditions: human liver CPT1 expressed in P. pastoris, cell extract; carnitine 500 μM, palmitoyl-CoA 80 μM, DTNB 300 μM
T2 construct: made in house; host or cells: Pichia pastoris strain X-33
T2 sequence (P50416 1-773): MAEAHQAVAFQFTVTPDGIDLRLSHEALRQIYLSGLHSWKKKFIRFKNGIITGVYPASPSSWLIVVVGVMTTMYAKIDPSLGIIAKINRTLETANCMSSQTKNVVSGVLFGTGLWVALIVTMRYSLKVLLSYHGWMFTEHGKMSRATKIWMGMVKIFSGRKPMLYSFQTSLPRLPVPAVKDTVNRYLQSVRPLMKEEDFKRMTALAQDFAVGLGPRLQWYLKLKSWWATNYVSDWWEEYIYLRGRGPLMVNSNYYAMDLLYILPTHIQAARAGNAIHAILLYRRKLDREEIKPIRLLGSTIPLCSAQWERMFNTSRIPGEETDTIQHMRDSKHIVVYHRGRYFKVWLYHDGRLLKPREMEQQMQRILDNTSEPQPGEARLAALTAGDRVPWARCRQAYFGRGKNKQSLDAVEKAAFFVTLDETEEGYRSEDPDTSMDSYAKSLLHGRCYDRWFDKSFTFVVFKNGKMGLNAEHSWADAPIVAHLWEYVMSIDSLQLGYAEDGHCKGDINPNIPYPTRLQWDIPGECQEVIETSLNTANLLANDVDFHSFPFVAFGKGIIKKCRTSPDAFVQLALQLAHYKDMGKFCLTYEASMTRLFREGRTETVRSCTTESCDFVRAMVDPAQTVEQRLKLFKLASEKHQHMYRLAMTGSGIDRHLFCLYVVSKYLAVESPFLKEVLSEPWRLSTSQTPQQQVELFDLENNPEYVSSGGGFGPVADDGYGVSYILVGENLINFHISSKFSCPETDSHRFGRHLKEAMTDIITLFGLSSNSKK
Experimental: as §1, §2, §3

| Molecule | IC50 (hCPT2) [nM] | IC50 (hL-CPT1) [nM] |
| --- | --- | --- |
| CN(C)C[C@@H](CC(=O)O)NC(=O)CCCCCCCOCc1ccc(F)c(F)c1 [Example 1, (R)-3-[8-(3,4-Difluoro-benzyloxy)-octanoylamino]-4-dimethylamino-butyric acid] | 910 | 7770 |
| CN(C)C[C@@H](CC(=O)O)NC(=O)CCCCCCCOCc1cc(F)ccc1F [Example 2, (R)-3-[8-(2,5-Difluoro-benzyloxy)-octanoylamino]-4-dimethylamino-butyric acid] | 3490 | > 10000 |
| CN(C)C[C@@H](CC(=O)O)NC(=O)CCCCCCCOCc1ccc(C(F)(F)F)cc1 [Example 6, (R)-4-Dimethylamino-3-[8-(4-trifluoromethyl-benzyloxy)-octanoylamino]-butyric acid] | 189 | > 10000 |
| CN(C)C[C@@H](CC(=O)O)NC(=O)CCCCCCCOCc1ccc(C(F)(F)F)c(F)c1 [Example 7, (R)-4-Dimethylamino-3-[8-(3-fluoro-4-trifluoromethyl-benzyloxy)-octanoylamino]-butyric acid] | 591 | 5990 |
| COc1ccc(COCCCCCCCC(=O)N[C@H](CC(=O)O)CN(C)C)cc1 [Example 8, (R)-4-Dimethylamino-3-[8-(4-methoxy-benzyloxy)-octanoylamino]-butyric acid] | 152 | > 10000 |
| CN(C)C[C@@H](CC(=O)O)NC(=O)CCCCCCCOCc1ccc(-c2ccccc2)cc1 [Example 9, (R)-3-[8-(Biphenyl-4-ylmethoxy)-octanoylamino]-4-dimethylamino-butyric acid] | 2 | 5790 |
| CN(C)C[C@@H](CC(=O)O)NC(=O)CCCCCCCOCc1ccc(C(F)(F)F)cc1F [Example 10, (R)-4-Dimethylamino-3-[8-(2-fluoro-4-trifluoromethyl-benzyloxy)-octanoylamino]-butyric acid] | 694 | > 10000 |
| COc1c(F)c(F)c(COCCCCCCCC(=O)N[C@H](CC(=O)O)CN(C)C)c(F)c1F [Example 11, (R)-4-Dimethylamino-3-[8-(2,3,5,6-tetrafluoro-4-methoxy-benzyloxy)-octanoylamino]-butyric acid] | 2940 | > 10000 |
| CN(C)C[C@@H](CC(=O)O)NC(=O)CCCCCCCOCc1cccc2ccccc12 [Example 12, (R)-4-Dimethylamino-3-[8-(naphthalen-1-ylmethoxy)-octanoylamino]-butyric acid] | 300 | > 10000 |
| CN(C)C[C@@H](CC(=O)O)NC(=O)CCCCCCCOCc1ccccc1F [Example 13, (R)-4-Dimethylamino-3-[8-(2-fluoro-benzyloxy)-octanoylamino]-butyric acid] | 2630 | > 10000 |
| CN(C)C[C@@H](CC(=O)O)NC(=O)CCCCCCCOCc1cccc(F)c1 [Example 14, (R)-4-Dimethylamino-3-[8-(3-fluoro-benzyloxy)-octanoylamino]-butyric acid] | 783 | > 10000 |
| CN(C)C[C@@H](CC(=O)O)NC(=O)CCCCCCCOCc1ccc(F)cc1 [Example 15, (R)-4-Dimethylamino-3-[8-(4-fluoro-benzyloxy)-octanoylamino]-butyric acid] | 2060 | 6550 |
| CN(C)C[C@@H](CC(=O)O)NC(=O)CCCCCCCOCc1ccccc1 [Example 17, (R)-3-(8-Benzyloxy-octanoylamino)-4-dimethylamino-butyric acid] | 1560 | > 10000 |
| CN(C)C[C@@H](CC(=O)O)NC(=O)CCCCCCCCOc1ccccc1F [Example 18, (R)-4-Dimethylamino-3-[9-(2-fluoro-phenoxy)-nonanoylamino]-butyric acid] | 452 | > 10000 |
| CN(C)C[C@@H](CC(=O)O)NC(=O)CCCCCCCCOc1cccc(F)c1 [Example 19, (R)-4-Dimethylamino-3-[9-(3-fluoro-phenoxy)-nonanoylamino]-butyric acid] | 16 | 2330 |
| CN(C)C[C@@H](CC(=O)O)NC(=O)CCCCCCCCOc1ccc(F)cc1 [Example 20, (R)-4-Dimethylamino-3-[9-(4-fluoro-phenoxy)-nonanoylamino]-butyric acid] | 21 | 1000 |
| (R)-3-{3-[6-(2,3-Difluoro-benzyloxy)-hexyl]-ureido}-4-dimethylamino-butyric acid [Example 62] | 1440 |  |

More lines, now with the values ahead:

| IC50 (hCPT2) [nM] | IC50 (hL-CPT1) [nM] | Molecule |
| --- | --- | --- |
| 265 | 6680 | CN(C)C[C@@H](CC(=O)O)NC(=O)CCCCCCCCOc1cccc(F)c1F [Example 21, (R)-3-[9-(2,3-Difluoro-phenoxy)-nonanoylamino]-4-dimethylamino-butyric acid] |
| 268 | 8630 | CN(C)C[C@@H](CC(=O)O)NC(=O)CCCCCCCCOc1ccc(F)cc1F [Example 22, (R)-3-[9-(2,4-Difluoro-phenoxy)-nonanoylamino]-4-dimethylamino-butyric acid] |
| 71 | 1660 | CN(C)C[C@@H](CC(=O)O)NC(=O)CCCCCCCCOc1ccc(F)c(F)c1 [Example 23, (R)-3-[9-(3,4-Difluoro-phenoxy)-nonanoylamino]-4-dimethylamino-butyric acid] |
| 73 | 5360 | CN(C)C[C@@H](CC(=O)O)NC(=O)CCCCCCCCOc1ccc(F)c(F)c1F [Example 24, (R)-4-Dimethylamino-3-[9-(2,3,4-trifluoro-phenoxy)-nonanoylamino]-butyric acid] |
| 19 | 1470 | CN(C)C[C@@H](CC(=O)O)NC(=O)CCCCCCCCOc1ccc(-c2ccccc2)cc1 [Example 25, (R)-3-[9-(Biphenyl-4-yloxy)-nonanoylamino]-4-dimethylamino-butyric acid] |
| 36 |  | CN(C)C[C@@H](CC(=O)O)NC(=O)CCCCCCCCCCOc1ccccc1 [Example 30, (R)-4-Dimethylamino-3-(11-phenoxy-undecanoylamino)-butyric acid] |
| 82 |  | CN(C)C[C@@H](CC(=O)O)NC(=O)CCCCCCCCOCCc1ccccc1 [Example 54, (R)-4-Dimethylamino-3-(9-phenethyloxy-nonanoylamino)-butyric acid] |
| 65 |  | CN(C)C[C@@H](CC(=O)O)NC(=O)CCCCCCCOCCCc1ccccc1 [Example 55, (R)-4-Dimethylamino-3-[8-(3-phenyl-propoxy)-octanoylamino]-butyric acid] |
| 101 |  | CN(C)C[C@@H](CC(=O)O)NC(=O)CCCCCCCOCCOc1ccccc1 [Example 56, (R)-4-Dimethylamino-3-[8-(2-phenoxy-ethoxy)-octanoylamino]-butyric acid] |
